IC50 data for ten compounds are collected here from patent publication US20240366598A1, “GLUCOSE-DEPENDENT INSULINOTROPIC POLYPEPTIDE RECEPTOR ANTAGONISTS AND USES THEREOF” (Pfizer Inc., priority 2023, published 2024).

One may read the IC50 as the concentration at which inhibition is half-maximal.

Counter-ions that a name gives are not always drawn.

In the experiment the target is T1, human Glucose-dependent Insulinotropic Polypeptide Receptor (hGIPR) (Homo sapiens, UniProt P48546).
T1 sequence (P48546 22-466): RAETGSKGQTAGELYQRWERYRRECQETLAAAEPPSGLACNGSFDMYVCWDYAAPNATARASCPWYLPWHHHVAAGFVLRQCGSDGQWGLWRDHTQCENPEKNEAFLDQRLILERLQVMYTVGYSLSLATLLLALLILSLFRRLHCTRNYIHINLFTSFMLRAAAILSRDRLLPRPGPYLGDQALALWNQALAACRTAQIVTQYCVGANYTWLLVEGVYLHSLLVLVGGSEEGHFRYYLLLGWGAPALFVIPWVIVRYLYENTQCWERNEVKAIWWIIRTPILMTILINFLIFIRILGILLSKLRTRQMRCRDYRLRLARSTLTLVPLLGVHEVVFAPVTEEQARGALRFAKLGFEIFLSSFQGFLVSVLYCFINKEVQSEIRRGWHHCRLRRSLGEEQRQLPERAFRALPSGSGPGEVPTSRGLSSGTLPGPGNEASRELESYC
Nature of the experiment: Functional in vitro GIPR antagonist potency assay (cAMP HTRF, CHO-K1 cells stably expressing hGIPR, hGIP stimulation at about EC80). It counts as cell-based. Particulars: geometric mean, hGIP at estimated EC80, examples marked ^2: overall geometric mean of multiple forms (including salts) tested. A digest of the protocol: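 HTRF quantification of cAMP after stimulation with hGIP at an estimated EC80 for 30 min at 37 °C. Before stimulation, hGIPR-expressing CHO-K1 cells were exposed 2 h to test compound in IBMX-containing buffer, with 0.5% DMSO final. Percent effect is referenced to agonist alone (0%) and to 80 μM of a reference antagonist (100%), and runs required the agonist concentration to fall within the on-the-day EC50–EC90.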
For the compound `Cc1ccc(CNC(=O)N2CCC[C@@H]2C(=O)Nc2ccc(-c3ccc(C(=O)O)nc3C)cc2)cc1F` [Example 212, 5-{4-[(1-{[(3-fluoro-4-methylphenyl)methyl]carbamoyl}-D-prolyl)amino]phenyl}-6-methylpyridine-2-carboxylic acid], the IC50 was 18 nM. Next, `Cc1nc(C(=O)O)ccc1-c1ccc(NC(=O)[C@H]2CCCN2C(=O)Nc2cnc(C(C)C)c(F)c2)cc1` [Example 213, 5-{4-[(1-{[5-fluoro-6-(propan-2-yl)pyridin-3-yl]carbamoyl}-D-prolyl)amino]phenyl}-6-methylpyridine-2-carboxylic acid]: 90 nM; `CC(C)c1ccc(NC(=O)N2CCC[C@@H]2C(=O)Nc2ccc(-c3ccc(C(=O)O)c(F)c3)cc2)cc1F` [Example 214, 3-fluoro-4′-[(1-{[3-fluoro-4-(propan-2-yl)phenyl]carbamoyl}-D-prolyl)amino][1,1′-biphenyl]-4-carboxylic acid]: 6.7 nM; `O=C(O)c1ccc(-c2ccc(NC(=O)[C@H]3CCCN3C(=O)Nc3ccc(C(F)(F)F)c(F)c3)cn2)cc1` [Example 215, 4-{5-[(1-{[3-fluoro-4-(trifluoromethyl)phenyl]carbamoyl}-D-prolyl)amino]pyridin-2-yl}benzoic acid]: 15 nM. As to `Cc1cc(NC(=O)N2CCC[C@@H]2C(=O)Nc2ccc(-c3ccc(C(=O)O)nc3C)cc2)ncc1C(C)C` [Example 216, 6-methyl-5-{4-[(1-{[4-methyl-5-(propan-2-yl)pyridin-2-yl]carbamoyl}-D-prolyl)amino]phenyl}pyridine-2-carboxylic acid, trifluoroacetate salt], the IC50 was 65 nM. Under `Cc1cc(NC(=O)[C@H]2CCCN2C(=O)Nc2ccc(C(C)C)c(F)c2)ccc1-c1ccc(C(=O)O)cc1` [Example 219, 4′-[(1-{[3-fluoro-4-(propan-2-yl)phenyl]carbamoyl}-D-prolyl)amino]-2′-methyl[1,1′-biphenyl]-4-carboxylic acid] stands 2.9 nM; under `Cc1cc(NC(=O)N2CCC[C@@H]2C(=O)Nc2ccc(-c3ccc(C(=O)O)cc3)nc2)ncc1C(F)(F)F` [Example 222, 4-{5-[(1-{[4-methyl-5-(trifluoromethyl)pyridin-2-yl]carbamoyl}-D-prolyl)amino]pyridin-2-yl}benzoic acid], 100 nM; under `O=C(O)c1cccc(-c2ccc(NC(=O)[C@H]3CCCN3C(=O)NCc3ccc(C(F)(F)F)c(F)c3)nc2)c1` [Example 223, 3-(6-{[1-({[3-fluoro-4-(trifluoromethyl)phenyl]methyl}carbamoyl)-D-prolyl]amino}pyridin-3-yl)benzoic acid], 51 nM.

Regarding `CC(C)c1ccc(CNC(=O)N2CCC[C@@H]2C(=O)Nc2ccc(-c3cccc(C(=O)O)c3)cn2)cc1` [Example 224, 3-(6-{[1-{{[4-(propan-2-yl)phenyl]methyl}carbamoyl)-D-prolyl]amino}pyridin-3-yl) benzoic acid], the IC50 was 79 nM.

Regarding `O=C(O)c1cccc(-c2ccc(NC(=O)[C@H]3CCCN3C(=O)NCc3ccc(C(F)(F)F)cc3)nc2)c1` [Example 225, 3-(6-{[1-({[4-(trifluoromethyl)phenyl]methyl}carbamoyl)-D-prolyl]amino}pyridin-3-yl)benzoic acid], the IC50 is 51 nM.
